Legend:
peas = conditions: cited from earlier work
lettuce plants = conditions: cited from earlier work
radish = conditions: cited from earlier work
Lettuce = assay: Growth of lettuce in nutrient-film technique hydroponic system (fresh weight of leafy head at harvest); type: in vivo, lettuce (buttercrunch); conditions: treatment day 42, harvest day 58, N=28 (control mean 36.13 g)
Protocol: Lettuce was grown in a nutrient-film technique hydroponic system. The seedlings were grown under LED light film with a 14 hour on time, and a 10 hour off time. The lettuce seeds were purchased from Johnny Selected Seeds. The seed variety was buttercrunch, ID 435 g. The nutrients used were Chem-Gro lettuce formula NPK with micronutrients. Calcium nitrate and magnesium sulfate were also added to the nutrients. The nutrients and the NAC-trisulfide were added to the nutrient bucket, Which was a 4 gallon bucket that recirculated the nutrient solution through the entire NFT system to bathe the roots of the lettuce plants with nutrients and water. An air stone with air pump was used in each nutrient bucket to provide aeration to the nutrient solution. […] The nutrient reservoirs were kept pH balanced and nutrient levels were kept steady. The nutrient loading measured in EC (electrical conductivity) would gradually increase as the water was consumed but would return to normal levels once water was added to return the buckets to the max volume of 4 gallons. The conductivity (EC) and pH were measured every 1 to 2 days. Nutrient was added as EC at 4 gallons would approach a value of 0.5 EC. The starting nutrient loading was 1.7 EC, The pH of the nutrient solution was balanced using phosphoric acid “pH down” solution. The pH of the nutrient solution ranged between 6.4-7.4.
The lettuce seeds were started in a separate flood tray. The seeds were sowed into an inert solid support (Oasis Horticubes) and the support absorbed water and nutrients like a sponge. The seedlings were then grown in the seeding hay for 33 days prior to transplant into the channels. At day 42. N-acteyl cysteine trisulfide (NAC trisulfide) was added to the nutrient of the lettuce plants. […]
The lettuce plants were harvested by cutting at the root boundary and discarding the roots along with the solid support. The leafy head of lettuce was then weighed to quantify the fresh weight of the lettuce reported in the graphs (see FIG. 1).

| Structure (SMILES) | growth of plants (peas) | growth of plants (lettuce plants) | harvest yield of radishes (radish; milligram loadings applied) | growth of plants (radish; radish) | Fresh Weight (g) Mean (Lettuce; group 2, 0.2449 g/4 gal nutrient reservoir) | Fresh Weight (g) Mean (Lettuce; group 3, 0.7475 g/4 gal nutrient reservoir) | Fresh Weight (g) Mean (Lettuce; group 4, 1.6112 g/4 gal nutrient reservoir) |
| --- | --- | --- | --- | --- | --- | --- | --- |
| C1COCCN1.COc1ccc(P(=S)(S)N2CCOCC2)cc1 (stereo not shown) [GYY-4137] | increased the growth | increased the growth | doubled | increased the growth | – | – | – |
| CC(=O)N[C@@H](CSSSC[C@H](NC(C)=O)C(=O)O)C(=O)O [NAC trisulfide, N-acetyl cysteine trisulfide] | – | – | – | – | 42.50 g | 51.44 g | 56.07 g |
